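Briefly, cells in 96-well plates were exposed to five compound concentrations for 48 h, and endpoints were estimated by linear interpolation. Here, GI50 denotes the concentration required for 50% inhibition of growth.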 Activity calls are given as the source filed them. Cut-off read from the data, not from the text of the source: active = GI50 up to about 1.1 µM and inactive = higher. Where a SMILES comes first, the peptide text is derived from it. [ ]: non-standard residue; d: D form. The star is where a group is joined. Bn2Val = CC(C)[C@@H](C(=O)*)N(Cc1ccccc1)Cc1ccccc1; NHPiperonyl = c1cc2c(cc1CN*)OCO2; NMeV = CN[C@H](C(=O)O)C(C)C; dNMeA = CN[C@H](C)C(=O)O Bounds are passed on as bounds.

Test systems include HOP-62; RPMI-8226; Malme-3M; COLO 205; U-251; SK-MEL-5; SK-MEL-28; SNB-75; NCI-H226; MCF7; HOP-92; UO-31; SK-OV-3; K562; HT-29; HCT-116; CCRF-CEM; HL-60; SR.
Common to all, as to experiment: NCI tumour cell line growth inhibition, 48 h

In the case of `Oc1ccc2ccccc2c1OCc1nnc(CCCCCCCCc2nnc(COc3c(O)ccc4ccccc34)n2Nc2ccccc2)n1Nc1ccccc1`, the GI50 was 1.06 µM (active) in the assay on HOP-62; 1.02 µM (active) with RPMI-8226; 11.1 µM (inactive) in the assay with Malme-3M; 0.399 µM (active) with COLO 205; 19 µM (inactive) in the assay on U-251; 0.536 µM (active) in the assay with SK-MEL-5. Further, the GI50 in the assay with SK-MEL-28 is 5.14 µM (inactive); in the assay with SNB-75 it was 38.4 µM (inactive); in the assay on NCI-H226, 8.32 µM (inactive); with MCF7, 5.62 µM (inactive); in the assay with HOP-92, 17.2 µM (inactive); in the assay with UO-31, 7.46 µM (inactive). The GI50 in the assay with SK-OV-3 was 16.5 µM (inactive); in the assay with K562 it was 0.0407 µM (active); with HT-29, 10.7 µM (inactive); in the assay on HCT-116 it was 10.9 µM (inactive).

Turning to `CCCCCCc1nn2c(-c3ccc(C)cc3)nnc2s1`, the GI50 in the assay with HOP-62 was > 100 µM (inactive); in the assay with RPMI-8226 it was > 100 µM (inactive); with COLO 205 it was > 100 µM (inactive); with U-251, 32.6 µM (inactive); with SK-MEL-5, 77.1 µM (inactive); in the assay on SK-MEL-28 it was > 100 µM (inactive). Besides, the GI50 in the assay on SNB-75, with MCF7, in the assay with UO-31, with SK-OV-3, in the assay with K562 and with HT-29 was > 100 µM (inactive) each time. Also, the GI50 in the assay with HCT-116 is 49.2 µM (inactive).

In the case of `O=c1[nH]n(Cc2ccccc2Cl)c2ccccc12`, the GI50 with HOP-62, in the assay with RPMI-8226, in the assay on Malme-3M, in the assay on CCRF-CEM, with COLO 205 and in the assay with U-251 was > 100 µM (inactive) in each case. For the same molecule, the GI50 with SK-MEL-5 was > 100 µM (inactive); in the assay on SK-MEL-28 it was > 100 µM (inactive); in the assay on SNB-75, 45.5 µM (inactive); with NCI-H226, > 100 µM (inactive); with HOP-92, 62.4 µM (inactive); in the assay on UO-31, > 100 µM (inactive). In addition, the GI50 with K562, in the assay on HT-29, with HL-60, in the assay on HCT-116 and with SR was > 100 µM (inactive) in each case.

With `COc1cccc(N2C(=O)C3c4[nH]c5ccccc5c4C4c5ccccc5CCC4C3C2=O)c1` (centres undefined), the GI50 in the assay on HOP-62 is 2.4 µM (inactive); in the assay with RPMI-8226, > 10 µM (inactive); in the assay on Malme-3M, 3.75 µM (inactive); in the assay with CCRF-CEM it was > 10 µM (inactive); in the assay on COLO 205, > 7.87 µM (inactive); with U-251, 3.82 µM (inactive). Besides, the GI50 with SK-MEL-5 was > 8.81 µM (inactive); with SK-MEL-28, > 9.55 µM (inactive); in the assay on SNB-75, 2.7 µM (inactive); in the assay on NCI-H226, > 4.37 µM (inactive); in the assay on MCF7, > 10 µM (inactive); in the assay on HOP-92, 6.15 µM (inactive). Moreover, the GI50 in the assay with UO-31 was 4.27 µM (inactive); in the assay on SK-OV-3, > 4.86 µM (inactive); with K562, > 10 µM (inactive); with HT-29, 9.93 µM (inactive); in the assay with HL-60, > 10 µM (inactive); with HCT-116, 4.34 µM (inactive).

In the case of `COc1ccc(-c2nc(SCC(=O)NNC(=S)Nc3ccccc3)[nH]c2-c2ccc(OC)cc2)cc1`, the GI50 in the assay on HOP-62 was 18.6 µM (inactive); in the assay on Malme-3M it was 52.2 µM (inactive); in the assay with CCRF-CEM, 22.7 µM (inactive); in the assay on COLO 205 it was 15.3 µM (inactive); in the assay on U-251, 17.5 µM (inactive); in the assay on SK-MEL-5, 14.9 µM (inactive). Further, the GI50 in the assay with SK-MEL-28 is 24.3 µM (inactive); in the assay on SNB-75, 24.9 µM (inactive); with MCF7, 20.5 µM (inactive); with HOP-92, 20.8 µM (inactive); in the assay with UO-31, 45.9 µM (inactive); in the assay with SK-OV-3, 27.2 µM (inactive). Also, the GI50 is 23.1 µM (inactive) in the assay with K562, 35.2 µM (inactive) in the assay on HT-29, 4.63 µM (inactive) in the assay with HL-60 and 25.8 µM (inactive) in the assay with HCT-116.

Regarding `Cc1cc2c(cc1Cl)SC(NNC1=NCCN1)=NS2(=O)=O`, the GI50 in the assay on HOP-62, in the assay on RPMI-8226, with Malme-3M, in the assay on CCRF-CEM, with COLO 205 and in the assay on U-251 was > 10 µM (inactive) throughout. The GI50 is > 10 µM (inactive) in the assay with SK-MEL-5; > 10 µM (inactive) with SK-MEL-28; > 10 µM (inactive) in the assay with SNB-75; > 10 µM (inactive) in the assay with NCI-H226; 0.00248 µM (active) in the assay on MCF7; > 10 µM (inactive) in the assay with UO-31. In addition, the GI50 in the assay on SK-OV-3, in the assay on K562, with HT-29, in the assay on HL-60 and in the assay on HCT-116 was > 10 µM (inactive) throughout.

With `C=C(C)CC1(O[Si](C)(C)C)C(=O)C(OCC)=C1OCC` (centres undefined), the GI50 in the assay on HOP-62, in the assay on Malme-3M, with CCRF-CEM, in the assay on COLO 205, in the assay on U-251 and in the assay on SK-MEL-5 was > 100 µM (inactive) throughout. Further, the GI50 with SK-MEL-28, in the assay on SNB-75, with NCI-H226, in the assay on MCF7, in the assay on HOP-92 and in the assay on UO-31 was > 100 µM (inactive) throughout. For the same molecule, the GI50 in the assay on SK-OV-3, with HT-29, in the assay on HL-60 and in the assay with HCT-116 was > 100 µM (inactive) in each case.

As for `COCn1cnc2c(=O)nc(SC)n(-c3ccccc3)c21`, the GI50 with HOP-62, in the assay on RPMI-8226, in the assay on Malme-3M, with CCRF-CEM, in the assay with COLO 205 and with SK-MEL-5 was > 100 µM (inactive) each time. The GI50 with SNB-75, with NCI-H226, in the assay with MCF7, with HOP-92, in the assay with UO-31 and in the assay with SK-OV-3 was > 100 µM (inactive) in each case. Also, the GI50 with K562, with HT-29, with HL-60 and in the assay on HCT-116 was > 100 µM (inactive) in each case.

As for `CN(C)CC(NC(NCS)C(=O)NCCNc1ccc(NCCNC(=O)C(NCS)NC(CN(C)C)OCCl)c2c1C(=O)c1c(O)ccc(O)c1C2=O)OCCl` (centres undefined), the GI50 with HOP-62 is 0.0151 µM (active); with RPMI-8226, 0.0016 µM (active); in the assay with Malme-3M, 0.0605 µM (active); in the assay with COLO 205 it was 1.34 µM (inactive); in the assay with U-251, 0.102 µM (active); in the assay on SK-MEL-5, 0.113 µM (active). For the same molecule, the GI50 with SK-MEL-28 was 0.0229 µM (active); in the assay on SNB-75, 0.0318 µM (active); with NCI-H226 it was 0.0585 µM (active); in the assay with MCF7 it was 0.01 µM (active); in the assay on UO-31, 0.0331 µM (active); in the assay on SK-OV-3, 0.147 µM (active). Also, the GI50 with K562 is 0.00678 µM (active); in the assay with HT-29 it was 0.0261 µM (active); with HCT-116 it was 0.0249 µM (active).

Turning to `C1=CC2C(C3CN(c4ccccc4)N=C13)C1C3C4C=CC21C=CC43` (centres undefined), the GI50 in the assay with HOP-62 was > 100 µM (inactive); with RPMI-8226, > 100 µM (inactive); in the assay with Malme-3M it was 57.5 µM (inactive); in the assay on CCRF-CEM, > 69.3 µM (inactive); in the assay with COLO 205, > 100 µM (inactive); in the assay on U-251, > 100 µM (inactive). The GI50 was > 100 µM (inactive) with SK-MEL-5; > 100 µM (inactive) with SK-MEL-28; > 65.3 µM (inactive) in the assay on SNB-75; > 100 µM (inactive) in the assay with NCI-H226; > 100 µM (inactive) with MCF7; 80 µM (inactive) in the assay with HOP-92. For the same molecule, the GI50 in the assay with UO-31, with SK-OV-3, with K562, with HT-29, with HL-60 and in the assay on HCT-116 was > 100 µM (inactive) in each case.

Turning to `CCC1=NC(N/N=C/c2ccco2)=N/C1=C\c1ccco1`, the GI50 in the assay on HOP-62 is > 100 µM (inactive); in the assay with RPMI-8226, 40.9 µM (inactive); with Malme-3M, > 100 µM (inactive); with CCRF-CEM, > 100 µM (inactive); in the assay with COLO 205, > 100 µM (inactive); in the assay with U-251, > 100 µM (inactive). The GI50 in the assay on SK-MEL-5, with SK-MEL-28, in the assay with NCI-H226, with HOP-92, in the assay with UO-31 and in the assay with SK-OV-3 was > 100 µM (inactive) throughout. In addition, the GI50 in the assay on K562 is 62.1 µM (inactive); with HT-29, > 100 µM (inactive); in the assay with HL-60 it was > 100 µM (inactive); in the assay on HCT-116 it was > 100 µM (inactive); with SR, > 100 µM (inactive).

For the molecule `CC(C)[C@H](NC(=O)[C@H](C(C)C)N(Cc1ccccc1)Cc1ccccc1)C(=O)N(C)[C@H](C(=O)N1CCC[C@H]1C(=O)N(C)[C@H](C)C(=O)NCc1ccc2c(c1)OCO2)C(C)C` (Bn2Val-V[NMeV]P[dNMeA]-NHPiperonyl), the GI50 was 29.9 µM (inactive) in the assay on HOP-62; 1.99 µM (inactive) with RPMI-8226; 21.9 µM (inactive) in the assay with Malme-3M; 2.56 µM (inactive) in the assay on CCRF-CEM; 2.15 µM (inactive) in the assay on COLO 205; 4.33 µM (inactive) in the assay with U-251. The GI50 in the assay with SK-MEL-28 was 22.4 µM (inactive); in the assay on NCI-H226 it was 16.8 µM (inactive); with MCF7, 2.25 µM (inactive); in the assay on UO-31, 21.6 µM (inactive); in the assay on SK-OV-3, 41.6 µM (inactive); in the assay with K562, 2.59 µM (inactive). Moreover, the GI50 was 3.03 µM (inactive) with HT-29, 1.17 µM (inactive) in the assay on HL-60 and 3.48 µM (inactive) in the assay on HCT-116.

The record behind these values is ChEMBL document CHEMBL1201862, “PubChem BioAssay data set” (2004).
